{"source": "patent US10285987B2", "about": "“Device and kit for dosing and dispensing non-liquid medicine” (AmpliPharm Pharmaceuticals, LLC, priority 2017, dated 2019)", "origin": "cited, not measured here", "conditions": "skin contact"}
{"smiles": "Cn1nnc2c(C(N)=O)ncn2c1=O", "note": "[temozolomide, 3,4-dihydro-3-methyl-4-oxoimidazo [5,1-d]-as-tetrazine-8-carboxamide]", "values": [{"measurement": "classification for skin corrosion/irritation and eye irritation", "value": "category 2"}]}
